{
  "source": "paper PMC5218480",
  "about": "(PLoS ONE, 2017)",
  "test_system": "MV-4-11 cells",
  "test": "Gene expression microarray analysis (Affymetrix PrimeView) and GSEA",
  "type": "cell-based, human",
  "parameters": "RFU PODN (11730768_x_at) / Fold change /veh PODN (11730768_x_at) / RFU LINC00158 (11744669_a_at) / Fold change /veh LINC00158 (11744669_a_at) / RFU DUSP10 (11751237_a_at) / Fold change /veh DUSP10 (11751237_a_at) / RFU ID3 (11757404_x_at) / Fold change /veh ID3 (11757404_x_at) / RFU PLEKHG5 (11737974_s_at) / Fold change /veh PLEKHG5 (11737974_s_at) / RFU LRRC4B (11730491_at) / Fold change /veh LRRC4B (11730491_at) / RFU GIMAP4 (11747438_a_at) / Fold change /veh GIMAP4 (11747438_a_at) / RFU KRT8 (11758183_x_at) / Fold change /veh KRT8 (11758183_x_at) / RFU CNN1 (11734310_a_at) / Fold change /veh CNN1 (11734310_a_at) / RFU VPS37D (11726825_at) / Fold change /veh VPS37D (11726825_at) / RFU C10orf10 (11716522_x_at) / Fold change /veh C10orf10 (11716522_x_at) / RFU KIR2DL2 /// KIR2DL4 /// KIR2DL5A /// KIR2DL5B /// KIR2DS1 /// KIR2DS2 /// KIR2DS3 /// KIR2DS4 /// KIR3DL3 /// KIR3DL3 /// KIR3DS1 (11738374_at) / Fold change /veh KIR2DL2 /// KIR2DL4 /// KIR2DL5A /// KIR2DL5B /// KIR2DS1 /// KIR2DS2 /// KIR2DS3 /// KIR2DS4 /// KIR3DL3 /// KIR3DL3 /// KIR3DS1 (11738374_at) / RFU C1QL1 (11718748_at) / Fold change /veh C1QL1 (11718748_at) / RFU TMPRSS4 (11747572_a_at) / Fold change /veh TMPRSS4 (11747572_a_at) / RFU HAMP (11756126_x_at) / Fold change /veh HAMP (11756126_x_at) / RFU RNFT2 (11725882_a_at) / Fold change /veh RNFT2 (11725882_a_at) / RFU NR4A2 (11747474_a_at) / Fold change /veh NR4A2 (11747474_a_at) / RFU ABCC12 (11746883_a_at) / Fold change /veh ABCC12 (11746883_a_at) / RFU TMEM136 (11760407_x_at) / Fold change /veh TMEM136 (11760407_x_at) / RFU CLDN22 /// WWC2 (11732394_at) / Fold change /veh CLDN22 /// WWC2 (11732394_at) / RFU HLA-DPB1 (11760878_x_at) / Fold change /veh HLA-DPB1 (11760878_x_at) / RFU SPINT1 (11716480_a_at) / Fold change /veh SPINT1 (11716480_a_at) / RFU GAP43 (11754022_s_at) / Fold change /veh GAP43 (11754022_s_at) / RFU A4GNT (11735810_at) / Fold change /veh A4GNT (11735810_at) / RFU PRB3 (11715151_x_at) / Fold change /veh PRB3 (11715151_x_at) / RFU TUBB4B (11761932_at) / Fold change /veh TUBB4B (11761932_at) / RFU CAPN14 (11732068_a_at) / Fold change /veh CAPN14 (11732068_a_at) / RFU TMCC2 (11721928_a_at) / Fold change /veh TMCC2 (11721928_a_at) / RFU IRGQ (11745062_a_at) / Fold change /veh IRGQ (11745062_a_at) / RFU FAM174B (11720279_a_at) / Fold change /veh FAM174B (11720279_a_at) / RFU TMPRSS4 (11748680_a_at) / Fold change /veh TMPRSS4 (11748680_a_at) / RFU FAM212B (11763350_a_at) / Fold change /veh FAM212B (11763350_a_at) / RFU PLEKHG5 (11743358_a_at) / Fold change /veh PLEKHG5 (11743358_a_at) / RFU ZSCAN30 (11745921_a_at) / Fold change /veh ZSCAN30 (11745921_a_at) / RFU CMKLR1 (11741424_a_at) / Fold change /veh CMKLR1 (11741424_a_at) / RFU LOC101060620 /// MAPK8IP1 (11723275_at) / Fold change /veh LOC101060620 /// MAPK8IP1 (11723275_at) / RFU SPTSSB (11747773_x_at) / Fold change /veh SPTSSB (11747773_x_at) / RFU PRSS12 (11739890_at) / Fold change /veh PRSS12 (11739890_at) / RFU BIN1 (11741810_x_at) / Fold change /veh BIN1 (11741810_x_at) / RFU WNT11 (11732464_a_at) / Fold change /veh WNT11 (11732464_a_at) / RFU C10orf10 (11716521_a_at) / Fold change /veh C10orf10 (11716521_a_at) / RFU C5orf56 (11738089_at) / Fold change /veh C5orf56 (11738089_at) / RFU CYB561 (11721691_x_at) / Fold change /veh CYB561 (11721691_x_at) / RFU ANKRD19P (11752326_a_at) / Fold change /veh ANKRD19P (11752326_a_at) / RFU OR2T12 /// OR2T33 /// OR2T8 (11738714_s_at) / Fold change /veh OR2T12 /// OR2T33 /// OR2T8 (11738714_s_at) / RFU VCAN (11748164_a_at) / Fold change /veh VCAN (11748164_a_at) / RFU JSRP1 (11732532_at) / Fold change /veh JSRP1 (11732532_at) / RFU KRTAP10-11 (11738290_x_at) / Fold change /veh KRTAP10-11 (11738290_x_at) / RFU MYO3A (11730013_a_at) / Fold change /veh MYO3A (11730013_a_at) / RFU EBF3 (11725865_a_at) / Fold change /veh EBF3 (11725865_a_at) / RFU CAMK2N1 (11719241_x_at) / Fold change /veh CAMK2N1 (11719241_x_at) / RFU C5orf56 (11738088_a_at) / Fold change /veh C5orf56 (11738088_a_at) / RFU OLFML3 (11715873_a_at) / Fold change /veh OLFML3 (11715873_a_at) / RFU LOC100653217 /// NTM (11731650_a_at) / Fold change /veh LOC100653217 /// NTM (11731650_a_at) / RFU MAPK11 (11762145_a_at) / Fold change /veh MAPK11 (11762145_a_at) / RFU FIZ1 (11724087_x_at) / Fold change /veh FIZ1 (11724087_x_at) / RFU OASL (11726364_x_at) / Fold change /veh OASL (11726364_x_at) / RFU SOX15 (11748057_x_at) / Fold change /veh SOX15 (11748057_x_at) / RFU CD79A (11719716_a_at) / Fold change /veh CD79A (11719716_a_at) / RFU HIST1H1D (11736915_at) / Fold change /veh HIST1H1D (11736915_at) / RFU CASKIN2 (11723855_a_at) / Fold change /veh CASKIN2 (11723855_a_at) / RFU LOC730098 (11760151_x_at) / Fold change /veh LOC730098 (11760151_x_at) / RFU OR4N2 (11742367_at) / Fold change /veh OR4N2 (11742367_at) / RFU PRRT2 (11749266_a_at) / Fold change /veh PRRT2 (11749266_a_at) / RFU SNX32 (11753110_a_at) / Fold change /veh SNX32 (11753110_a_at) / RFU CDHR5 (11726645_a_at) / Fold change /veh CDHR5 (11726645_a_at) / RFU RCAN1 (11760418_a_at) / Fold change /veh RCAN1 (11760418_a_at) / RFU FAM167A (11723789_a_at) / Fold change /veh FAM167A (11723789_a_at) / RFU FAM26E (11764081_at) / Fold change /veh FAM26E (11764081_at) / RFU ISYNA1 (11749810_s_at) / Fold change /veh ISYNA1 (11749810_s_at) / RFU ACY1 (11761880_at) / Fold change /veh ACY1 (11761880_at) / RFU 11764098_at / Fold change /veh 11764098_at / RFU SAMD14 (11745864_x_at) / Fold change /veh SAMD14 (11745864_x_at) / RFU NPB (11741838_a_at) / Fold change /veh NPB (11741838_a_at) / RFU TMPRSS6 (11731388_a_at) / Fold change /veh TMPRSS6 (11731388_a_at) / RFU KRTAP10-2 (11738614_at) / Fold change /veh KRTAP10-2 (11738614_at) / RFU ARHGAP8 /// PRR5-ARHGAP8 (11727945_x_at) / Fold change /veh ARHGAP8 /// PRR5-ARHGAP8 (11727945_x_at) / RFU KRTAP5-7 /// NADSYN1 (11734609_at) / Fold change /veh KRTAP5-7 /// NADSYN1 (11734609_at) / RFU RASL12 (11751679_a_at) / Fold change /veh RASL12 (11751679_a_at) / RFU CDKN2B (11736163_a_at) / Fold change /veh CDKN2B (11736163_a_at) / RFU PRF1 (11729649_at) / Fold change /veh PRF1 (11729649_at) / RFU, ZNF638 /// ZNF638-IT1 / Fold change vs veh, ZNF638 /// ZNF638-IT1 / RFU, PANK3 / Fold change vs veh, PANK3 / RFU, SH3YL1 / Fold change vs veh, SH3YL1 / RFU, ZEB2 / Fold change vs veh, ZEB2 / RFU, NRIP1 / Fold change vs veh, NRIP1 / RFU, PTTG1IP / Fold change vs veh, PTTG1IP / RFU, CAPN2 / Fold change vs veh, CAPN2 / RFU, MED14 / Fold change vs veh, MED14 / RFU, SNORA58 / Fold change vs veh, SNORA58 / RFU, C1orf63 / Fold change vs veh, C1orf63 / RFU, LRRFIP1 / Fold change vs veh, LRRFIP1 / RFU, NDUFAF7 / Fold change vs veh, NDUFAF7 / RFU, SLC12A2 / Fold change vs veh, SLC12A2 / RFU, IBTK / Fold change vs veh, IBTK / RFU, ESF1 / Fold change vs veh, ESF1 / Fold change vs veh, TMEM50B / RFU, TAOK1 / Fold change vs veh, TAOK1 / RFU, ACBD3 / Fold change vs veh, ACBD3 / RFU, TMA16 / Fold change vs veh, TMA16 / RFU, RWDD3 / Fold change vs veh, RWDD3 / RFU, BCAT1 / Fold change vs veh, BCAT1 / RFU, EDEM3 / Fold change vs veh, EDEM3 / RFU, TMEM33 / Fold change vs veh, TMEM33 / RFU, WDR75 / Fold change vs veh, WDR75 / RFU, AHCTF1 / Fold change vs veh, AHCTF1 / RFU, TFRC / Fold change vs veh, TFRC / RFU, ZDHHC17 / Fold change vs veh, ZDHHC17 / RFU, NOM1 / Fold change vs veh, NOM1 / RFU, ARL8B / Fold change vs veh, ARL8B / RFU, ZBTB11 / Fold change vs veh, ZBTB11 / RFU, TAMM41 / Fold change vs veh, TAMM41 / RFU, KIAA1704 /// LOC100996395 / Fold change vs veh, KIAA1704 /// LOC100996395 / RFU, ING1 / Fold change vs veh, ING1 / RFU, TRMT61B / Fold change vs veh, TRMT61B / RFU, FUBP3 / Fold change vs veh, FUBP3 / RFU, TP53 / Fold change vs veh, TP53 / RFU, TNKS2 / Fold change vs veh, TNKS2 / RFU, ZFP14 / Fold change vs veh, ZFP14 / RFU, ACTR2 / Fold change vs veh, ACTR2 / RFU, PPP3R1 / Fold change vs veh, PPP3R1 / RFU, PIK3R1 / Fold change vs veh, PIK3R1 / RFU, HNRNPA1 / Fold change vs veh, HNRNPA1 / RFU, RNF170 / Fold change vs veh, RNF170 / RFU, ZNF28 / Fold change vs veh, ZNF28 / RFU, RNGTT / Fold change vs veh, RNGTT / RFU, OGT / Fold change vs veh, OGT / RFU, BRD1 / Fold change vs veh, BRD1 / RFU, MARS / Fold change vs veh, MARS / RFU, ZNF655 / Fold change vs veh, ZNF655 / RFU, FAHD1 / Fold change vs veh, FAHD1 / RFU, BDP1 / Fold change vs veh, BDP1 / RFU, LRRCC1 / Fold change vs veh, LRRCC1 / RFU, ARID1A / Fold change vs veh, ARID1A / RFU, ZNF146 / Fold change vs veh, ZNF146 / RFU, ZNF330 / Fold change vs veh, ZNF330 / RFU, GPN3 / Fold change vs veh, GPN3 / RFU, C9orf123 / Fold change vs veh, C9orf123 / RFU, N4BP2L2 / Fold change vs veh, N4BP2L2 / RFU, ARFIP1 / Fold change vs veh, ARFIP1 / RFU, FAM179B / Fold change vs veh, FAM179B / RFU, BCL10 / Fold change vs veh, BCL10 / RFU, UHRF1BP1L / Fold change vs veh, UHRF1BP1L / RFU, BET1 / Fold change vs veh, BET1 / RFU, CNOT2 / Fold change vs veh, CNOT2 / RFU, ZNF268 / Fold change vs veh, ZNF268 / Fold change vs veh, ZNF507 / RFU, DGCR2 / Fold change vs veh, DGCR2 / RFU, WDSUB1 / Fold change vs veh, WDSUB1 / Fold change vs veh, HSP90B1 /// MIR3652 / RFU, ADSS / Fold change vs veh, ADSS / RFU, GK / Fold change vs veh, GK / RFU, ZNF148 / Fold change vs veh, ZNF148 / RFU, TAF9 / Fold change vs veh, TAF9 / RFU, SLC1A5 / Fold change vs veh, SLC1A5 / RFU, SLMO2 / Fold change vs veh, SLMO2 / RFU, ABCC4 / Fold change vs veh, ABCC4 / RFU, LOC101060439 /// RAP1B / Fold change vs veh, LOC101060439 /// RAP1B / RFU, RFX7 / Fold change vs veh, RFX7 / RFU, GTPBP10 / Fold change vs veh, GTPBP10 / RFU, CNEP1R1 / Fold change vs veh, CNEP1R1 / RFU, BIVM-ERCC5 /// ERCC5 / Fold change vs veh, BIVM-ERCC5 /// ERCC5 / RFU, ILF3 / Fold change vs veh, ILF3 / RFU 11762660_at / Fold change /veh 11762660_at / RFU VCAN (11757783_s_at) / Fold change /veh VCAN (11757783_s_at) / RFU DDX43 (11728927_at) / Fold change /veh DDX43 (11728927_at) / RFU KRT8 (11758188_x_at) / Fold change /veh KRT8 (11758188_x_at) / RFU NKD1 (11759106_at) / Fold change /veh NKD1 (11759106_at) / RFU SRD5A1 (11742802_a_at) / Fold change /veh SRD5A1 (11742802_a_at) / RFU TPSAB1 /// TPSB2 (11721975_s_at) / Fold change /veh TPSAB1 /// TPSB2 (11721975_s_at) / RFU GSTM3 (11746129_a_at) / Fold change /veh GSTM3 (11746129_a_at) / RFU IL23R (11737362_x_at) / Fold change /veh IL23R (11737362_x_at) / RFU TMEM51 (11727254_a_at) / Fold change /veh TMEM51 (11727254_a_at) / RFU PIWIL2 (11732686_x_at) / Fold change /veh PIWIL2 (11732686_x_at) / RFU ORM1 (11744905_x_at) / Fold change /veh ORM1 (11744905_x_at) / RFU CCDC152 (11743942_at) / Fold change /veh CCDC152 (11743942_at) / RFU ECM1 (11717891_a_at) / Fold change /veh ECM1 (11717891_a_at) / RFU IL23R (11748794_a_at) / Fold change /veh IL23R (11748794_a_at) / RFU TNFAIP8L3 (11732012_x_at) / Fold change /veh TNFAIP8L3 (11732012_x_at) / RFU MBOAT4 (11741988_at) / Fold change /veh MBOAT4 (11741988_at) / RFU 11764193_at / Fold change /veh 11764193_at / RFU TMEM53 (11763286_at) / Fold change /veh TMEM53 (11763286_at) / RFU MAGEB2 (11727129_at) / Fold change /veh MAGEB2 (11727129_at) / RFU TMEM200A (11744735_a_at) / Fold change /veh TMEM200A (11744735_a_at) / RFU CCDC152 (11751479_a_at) / Fold change /veh CCDC152 (11751479_a_at) / RFU FAM211A (11726209_a_at) / Fold change /veh FAM211A (11726209_a_at) / RFU RGS16 (11746705_a_at) / Fold change /veh RGS16 (11746705_a_at) / RFU VCAN (11755009_s_at) / Fold change /veh VCAN (11755009_s_at) / RFU RHOB (11743442_s_at) / Fold change /veh RHOB (11743442_s_at) / RFU RGS16 (11720943_a_at) / Fold change /veh RGS16 (11720943_a_at) / RFU RGS16 (11720944_at) / Fold change /veh RGS16 (11720944_at) / RFU, VPS4B / Fold change vs veh, VPS4B / RFU, CREB1 / Fold change vs veh, CREB1 / RFU, DNAJC13 / Fold change vs veh, DNAJC13 / RFU, GNAQ / Fold change vs veh, GNAQ / RFU, CDK5R1 / Fold change vs veh, CDK5R1 / RFU, ZRANB3 / Fold change vs veh, ZRANB3 / RFU, CUL4A / Fold change vs veh, CUL4A / RFU, CCNY / Fold change vs veh, CCNY / RFU, UFL1 / Fold change vs veh, UFL1 / RFU, COG3 / Fold change vs veh, COG3 / RFU, DIAPH2 / Fold change vs veh, DIAPH2 / RFU, SKA2 / Fold change vs veh, SKA2 / RFU, AFF3 / Fold change vs veh, AFF3 / RFU, LMF1 / Fold change vs veh, LMF1 / RFU, IPO11 / Fold change vs veh, IPO11 / RFU, DFFB / Fold change vs veh, DFFB / RFU, FOXP1 / Fold change vs veh, FOXP1 / RFU, CARD8 / Fold change vs veh, CARD8 / RFU, STRN3 / Fold change vs veh, STRN3 / RFU, ADK / Fold change vs veh, ADK / RFU, RASSF2 / Fold change vs veh, RASSF2 / RFU, WIPF1 / Fold change vs veh, WIPF1 / RFU, LARP1B / Fold change vs veh, LARP1B / RFU, RASA1 / Fold change vs veh, RASA1 / RFU, RB1 / Fold change vs veh, RB1 / RFU, PPFIA1 / Fold change vs veh, PPFIA1 / RFU, MAT2A / Fold change vs veh, MAT2A / RFU, CCT5 / Fold change vs veh, CCT5 / RFU, WDR92 / Fold change vs veh, WDR92 / RFU, CUX1 / Fold change vs veh, CUX1 / RFU, TTC7A / Fold change vs veh, TTC7A / RFU, TMEM135 / Fold change vs veh, TMEM135 / RFU, DEPTOR / Fold change vs veh, DEPTOR / RFU, CPM / Fold change vs veh, CPM / RFU, DNAJB6 / Fold change vs veh, DNAJB6 / RFU, CACNA2D3 / Fold change vs veh, CACNA2D3 / RFU, DTX4 / Fold change vs veh, DTX4 / RFU, TFCP2 / Fold change vs veh, TFCP2 / RFU, GMCL1 /// GMCL1P1 / Fold change vs veh, GMCL1 /// GMCL1P1 / RFU, AEBP2 / Fold change vs veh, AEBP2 / RFU, SNHG1 /// SNORD22 /// SNORD25 /// SNORD26 /// SNORD27 /// SNORD28 /// SNORD29 /// SNORD31 / Fold change vs veh, SNHG1 /// SNORD22 /// SNORD25 /// SNORD26 /// SNORD27 /// SNORD28 /// SNORD29 /// SNORD31 / Fold change (Aza/veh), C12orf56 (ProbeSet 11735607_a_at) / Fold change (ACY-1035/veh), C12orf56 (ProbeSet 11735607_a_at) / Fold change (Aza/veh), FGFR1OP (ProbeSet 11751329_s_at) / Fold change (ACY-1035/veh), FGFR1OP (ProbeSet 11751329_s_at) / Fold change (Aza/veh), VPS36 (ProbeSet 11739960_a_at) / Fold change (ACY-1035/veh), VPS36 (ProbeSet 11739960_a_at) / RFU SYPL1 (11715823_x_at) / Fold change /veh SYPL1 (11715823_x_at) / RFU IGFBP7 (11715501_s_at) / Fold change /veh IGFBP7 (11715501_s_at) / RFU REEP3 (11722064_at) / Fold change /veh REEP3 (11722064_at) / RFU IGLL1 (11728026_x_at) / Fold change /veh IGLL1 (11728026_x_at): dose or concentration left out as unconfirmed",
  "settings": "MV-4-11 cells, 48 hours",
  "data": [
    {"smiles": "Nc1ncn([C@@H]2O[C@H](CO)[C@@H](O)[C@H]2O)c(=O)n1", "note": "[azacitidine]", "values": [
      {"measurement": "Fold change /veh CCDC152 (11743942_at)", "value": 1.57}
    ]}
  ]
}
